Measurements as given in patent US20260256765A1, “METHOD OF TREATING DISEASE USING COMPOUND, AND USE OF COMPOUND” (TENNOR THERAPEUTICS (SUZHOU) LIMITED, priority 2023, published 2026).
Converted amounts (≈) assume the structure as drawn. Where two headings read alike, the source gives them in different places.

Assays:
Format in all cases: cell-based
[1] = system: Staphylococcus aureus (18 strains); assay: MIC against clinical DFI isolates, Staphylococcus aureus
Procedure: (§1) Preparation of test strains: In this example, foot specimens were collected from 49 patients with type II diabetes. Isolates were obtained from the specimens described above through homogenization, plating, and culture at 37° C., and after the removal of fungi and strains with poor growth or strains that could not be isolated and purified, a total of 69 clinical strains were obtained. Among these, 55 strains were Gram-positive bacteria and 14 strains were Gram-negative bacteria. Of the Gram-positive bacteria, 43 strains were staphylococci, including 18 Staphylococcus aureus strains, 8 Staphylococcus epidermidis strains, and 5 Staphylococcus lugdunensis strains. One ATCC standard strain was additionally used as a standard and quality control strain.
(§2) Determination of antibacterial activity: The minimum inhibitory concentration (MIC) and the minimum biofilm bactericidal concentration (MBBC) for in vitro biofilms of the compound of formula (I) and control drugs (see details in 2) against 69 clinically isolated diabetic foot infection clinical strains were evaluated using the standard broth dilution method and the in vitro biofilm culture and drug susceptibility methods reported in the literature.

[2] = system: Staphylococci (43 strains); assay: MIC against clinical DFI isolates, staphylococci total
Procedure: as §1, §2

[3] = system: Gram-positive bacteria (55 strains); assay: MBBC for in vitro biofilms of clinical DFI isolates, Gram-positive bacteria
Procedure: as §1
(§3) Preparation of biofilms: In a sterile environment, a single, identified, and thawed colony was picked with an inoculation loop and bacterial inoculums were adjusted to a 0.5 McFarland standard, which served as an initial bacterial inoculum. The bacterial inoculum was diluted in a 1:200 ratio by adding 50 μL of the initial bacterial inoculums to 10 mL of a CAMHB medium. 150 μL of the bacterial inoculums was transferred to a CBD plate using a pipette. The inoculated CBD plate was incubated in an incubator at 35±2° C. for 16-20 hours.
as §2

[4] = system: Gram-negative bacteria (14 strains); assay: MIC by standard broth dilution against clinical DFI isolates, Gram-negative bacteria
Procedure: as §1, §2

[5] = system: Staphylococcus epidermidis (8 strains); assay: MIC against clinical DFI isolates, Staphylococcus epidermidis
Procedure: as §1, §2

[6] = system: Gram-positive bacteria (55 strains); assay: MIC by standard broth dilution against clinical DFI isolates, Gram-positive bacteria
Procedure: as §1, §2

[7] = system: Gram-negative bacteria (14 strains); assay: MBBC for in vitro biofilms of clinical DFI isolates, Gram-negative bacteria
Procedure: as §1, §3, §2

[8] = system: Staphylococcus aureus (18 strains); assay: MBBC against biofilms of clinical DFI isolates, Staphylococcus aureus
Procedure: as §1, §3, §2

[9] = system: Staphylococci (43 strains); assay: MBBC against biofilms of clinical DFI isolates, staphylococci total
Procedure: as §1, §3, §2

[10] = system: Staphylococcus epidermidis (8 strains); assay: MBBC against biofilms of clinical DFI isolates, Staphylococcus epidermidis
Procedure: as §1, with “strain. […]” for “strain.”
as §2

[11] = Staphylococcus aureus (18 strains), read-out: MIC50
[12] = Staphylococcus aureus (18 strains), read-out: MIC90
[13] = Staphylococci (43 strains), total, read-out: MIC50
[14] = Staphylococci (43 strains), total, read-out: MIC90
[15] = biofilms, Gram-positive bacteria (55 strains), read-out: MBBC50
[16] = biofilms, Gram-positive bacteria (55 strains), read-out: MBBC90
[17] = Gram-positive bacteria (55 strains), clinical DFI isolates
[18] = biofilms, Staphylococcus aureus (18 strains), read-out: MBBC50
[19] = biofilms, Staphylococcus aureus (18 strains), read-out: MBBC90
[20] = biofilms, Staphylococci (43 strains), total, read-out: MBBC50
[21] = biofilms, Staphylococci (43 strains), total, read-out: MBBC90
[22] = Staphylococcus aureus (18 strains)
[23] = Gram-positive bacteria (55 strains), clinical DFI isolates, read-out: MIC50
[24] = Staphylococci (43 strains), total
[25] = biofilms, Gram-positive bacteria (55 strains)
[26] = biofilms, Staphylococcus aureus (18 strains)

Structure (SMILES)	MIC50 [1, 11]	MIC90 [1, 12]	MIC50 [2, 13]	MIC90 [2, 14]	MBC [3, 15]	MBC [3, 16]	MIC50 [4]	MIC90 [4]	MIC range [5]	MIC90 [6, 17]	MBC ([7]; read-out: MBBC50)	MBC ([7]; read-out: MBBC90)	MBC [8, 18]	MBC [8, 19]	MBC [9, 20]	MBC [9, 21]	MIC range [1, 22]	MIC50 [6, 23]	MIC range [2, 24]	other results
C/C(=C\C(=O)OCCCCCCCCC(=O)O)C[C@@H]1OC[C@H](C[C@@H]2O[C@H]2[C@@H](C)[C@H](C)O)[C@@H](O)[C@H]1O [Mupirocin]	0.25 µg/mL (≈ 0.499 µM)	> 128 µg/mL	0.25 µg/mL (≈ 0.499 µM)	32 µg/mL (≈ 63.9 µM)	> 128 µg/mL	> 128 µg/mL	> 128 µg/mL	> 128 µg/mL	0.25~0.5 μg/mL	64 µg/mL (≈ 128 µM)	> 128 µg/mL	> 128 µg/mL	> 128 µg/mL	> 128 µg/mL	> 128 µg/mL	> 128 µg/mL				
CCC[C@@H]1C[C@@H](C(=O)N[C@@H]([C@H]2O[C@H](SC)[C@H](O)[C@@H](O)[C@H]2O)[C@H](C)Cl)N(C)C1 [Clindamycin]		0.25 µg/mL (≈ 0.588 µM)		128 µg/mL (≈ 301 µM)	> 128 µg/mL	> 128 µg/mL	> 128 µg/mL	> 128 µg/mL		> 128 µg/mL	> 128 µg/mL	> 128 µg/mL	> 128 µg/mL	> 128 µg/mL	> 128 µg/mL	> 128 µg/mL	≤0.06~0.5 μg/mL	0.25 µg/mL (≈ 0.588 µM)		MIC50 ([1]; Staphylococcus aureus): 0.125 µg/mL (≈ 0.294 µM); MIC50 [2]: 0.125 µg/mL (≈ 0.294 µM)
CC(=O)NC[C@H]1CN(c2ccc(N3CCOCC3)c(F)c2)C(=O)O1 [Linezolid]	2 µg/mL (≈ 5.93 µM)	4 µg/mL (≈ 11.9 µM)	2 µg/mL (≈ 5.93 µM)	4 µg/mL (≈ 11.9 µM)	> 128 µg/mL	> 128 µg/mL	> 128 µg/mL	> 128 µg/mL	2~4 μg/mL		> 128 µg/mL	> 128 µg/mL	> 128 µg/mL	> 128 µg/mL	> 128 µg/mL	> 128 µg/mL	2~4 μg/mL		0.5~4 μg/mL	MIC50 ([2]; staphylococci, read-out: MIC50): 2 µg/mL (≈ 5.93 µM); MIC90 ([2]; staphylococci, read-out: MIC90): 4 µg/mL (≈ 11.9 µM); MBBC50 [3, 25]: >128 µg/mL; MBBC90 [3, 25]: >128 µg/mL
CO[C@H]1/C=C/O[C@@]2(C)Oc3c(C)c(O)c4c(O)c(c(/C=N/N5CCN(C)CC5)c(O)c4c3C2=O)NC(=O)/C(C)=C\C=C\[C@H](C)[C@H](O)[C@@H](C)[C@@H](O)[C@@H](C)[C@H](OC(C)=O)[C@@H]1C [Rifampicin]	≤ 0.015 µg/mL	≤ 0.015 µg/mL	≤ 0.015 µg/mL	≤ 0.015 µg/mL	8 µg/mL (≈ 9.72 µM)	> 16 µg/mL	32 µg/mL (≈ 38.9 µM)	> 32 µg/mL	≤0.015 µg/mL	0.5 µg/mL (≈ 0.608 µM)	> 16 µg/mL	> 32 µg/mL	16 µg/mL (≈ 19.4 µM)	> 16 µg/mL	4 µg/mL (≈ 4.86 µM)	> 16 µg/mL	≤0.015 µg/mL	≤ 0.015 µg/mL		MBBC range [10]: 0.03~16 ^ μg/mL; MBBC range [8, 26]: ≤0.03~16 ^ μg/mL
CO[C@H]1/C=C/O[C@@]2(C)Oc3c(C)c(O)c4c(O)c(c(/C=N/N5CCC(N(C)C6([C@@H]7CCN(c8c(F)cn9c(=O)c(C(=O)O)cc(C%10CC%10)c9c8C)C7)CC6)CC5)c(O)c4c3C2=O)NC(=O)/C(C)=C\C=C\[C@H](C)[C@H](O)[C@@H](C)[C@@H](O)[C@@H](C)[C@H](OC(C)=O)[C@@H]1C [Compound of formula (I)]	≤ 0.015 µg/mL	≤ 0.015 µg/mL	≤ 0.015 µg/mL	≤ 0.015 µg/mL	0.125 µg/mL	16 µg/mL	> 32 µg/mL	> 32 µg/mL	≤0.015~0.03 ^ μg/mL	0.25 µg/mL	> 16 µg/mL	> 32 µg/mL	0.25 µg/mL	0.5 µg/mL	0.06 µg/mL	0.5 µg/mL	≤0.015~0.03 μg/mL	≤ 0.015 µg/mL	≤0.015~0.25 μg/mL	MIC50 ([1]; Staphylococcus aureus, read-out: MIC50): < 0.015 µg/mL; MIC90 ([1]; Staphylococcus aureus, read-out: MIC90): 0.015 µg/mL; MIC50 ([2]; staphylococci, read-out: MIC50): < 0.015 µg/mL; MIC90 ([2]; staphylococci, read-out: MIC90): 0.015 µg/mL; MBBC range [10]: ≤0.015~0.06 ^ μg/mL; MIC50 ([6]; Gram-positive bacterial isolates, text b97): < 0.015 µg/mL; MBBC50 ([8]; Staphylococcus aureus biofilms): 0.25 µg/mL; MBBC range [8, 26]: 0.03~0.5 μg/mL; MBBC range ([8]; in vitro biofilms of Staphylococcus aureus): 0.03 to 0.5 g/mL; MBBC range ([9]; biofilms, Staphylococci (43 strains), total): ≤0.015~1 μg/mL; MBBC range ([9]; in vitro biofilms of staphylococci): 0.015 to 1 g/mL; MBBC50 ([9]; staphylococci biofilms): 0.06 µg/mL; MBBC90 ([9]; staphylococci biofilms): 0.5 µg/mL
CN[C@H](CC(C)C)C(=O)N[C@H]1C(=O)N[C@@H](CC(N)=O)C(=O)N[C@H]2C(=O)N[C@H]3C(=O)N[C@H](C(=O)N[C@H](C(=O)O)c4cc(O)cc(O)c4-c4cc3ccc4O)[C@H](O)c3ccc(c(Cl)c3)Oc3cc2cc(c3O[C@@H]2O[C@H](CO)[C@@H](O)[C@H](O)[C@H]2O[C@H]2C[C@](C)(N)[C@H](O)[C@H](C)O2)Oc2ccc(cc2Cl)[C@H]1O [Vancomycin]							> 128 µg/mL	> 128 µg/mL	2~4 μg/mL	2 µg/mL (≈ 1.38 µM)	> 128 µg/mL	> 128 µg/mL					1~2 μg/mL	2 µg/mL (≈ 1.38 µM)	1~4 μg/mL	MIC50 ([1]; Staphylococcus aureus): 2 µg/mL (≈ 1.38 µM); MIC90 ([1]; Staphylococcus aureus): 2 µg/mL (≈ 1.38 µM); MIC50 [2]: 2 µg/mL (≈ 1.38 µM); MIC90 [2]: 2 µg/mL (≈ 1.38 µM); MIC50 ([2]; staphylococci): 2 µg/mL (≈ 1.38 µM); MIC90 ([2]; staphylococci): 2 µg/mL (≈ 1.38 µM); MBBC50 [3, 25]: >128 µg/mL; MBBC90 [3, 25]: >128 µg/mL; MBC ([3]; read-out: MBBC50): > 128 µg/mL; MBC ([3]; read-out: MBBC90): > 128 µg/mL; MBC ([8]; Staphylococcus aureus, read-out: MBBC50): > 128 µg/mL; MBC ([8]; Staphylococcus aureus, read-out: MBBC90): > 128 µg/mL; MBC ([9]; read-out: MBBC50): > 128 µg/mL; MBC ([9]; read-out: MBBC90): > 128 µg/mL
Cc1onc(-c2ccccc2)c1C(=O)N[C@@H]1C(=O)N2[C@@H]1SC(C)(C)[C@@H]2C(=O)O [Oxacillin]	0.5 µg/mL (≈ 1.25 µM)	64 µg/mL (≈ 159 µM)	2 µg/mL (≈ 4.98 µM)	128 µg/mL (≈ 319 µM)	> 128 µg/mL	> 128 µg/mL	> 128 µg/mL	> 128 µg/mL			> 128 µg/mL	> 128 µg/mL	32 µg/mL (≈ 79.7 µM)	> 128 µg/mL	> 128 µg/mL	> 128 µg/mL				
